According to patent US20130045991A1, “NEUROPROTECTIVE MODULATION OF NMDA RECEPTOR SUBTYPE ACTIVITIES” (THE UNIVERSITY OF BRITISH COLUMBIA, priority 2005, published 2013):
“Also recorded” adds a separate entry of the source.

Tests used:
[1] = tested on: NMDA receptors (NR2A- and NR2B-containing); assay: Whole-cell currents evoked by NMDA in cultured cortical neurons; assay type: cell-based, rat; conditions: for percentage blockade of NMDA-induced currents, applied alone: NVP-AAM077 0.4 μM or Ro25-6981 0.5 μM bath applied alone, 10 μM glycine, 5 μM strychnine, -60 mV; for percentage blockade of NMDA-induced currents, applied alone / percentage blockade of NMDA-induced currents, applied after blockade by the other antagonist: 50 μM NMDA; for percentage blockade of NMDA-induced currents, applied after blockade by the other antagonist: sequential application, NVP-AAM077 0.4 μM, Ro25-6981 0.5 μM
cortical neurons [2] = assay: NMDA-mediated excitotoxicity: neuronal apoptosis in cortical cultures; assay type: cell-based, rat; conditions: 50 μM NMDA plus 10 μM glycine 20 min, assayed 20 h after; APV 50 μM, Ro25-6981 0.5 μM, NVP-AAM077 0.4 μM
Method: Mature neurons (11-14 DIV) were used for experiments.
To visualize injured neurons, Hoechst-33342 (10 μg/ml) was added to the culture medium 20 h after treatments and incubated for 45 min at 37 °C. Images were taken with a Leica DMIRE2 fluorescence microscope. Quantitative assessment of neuronal apoptosis was performed 20 h following treatments using a Cell Death Detection […] Kit (Roche Applied Science). Absorbance readings were determined using a spectrophotometric microplate reader. Data analyses were carried out according to the manufacturer's instructions. Data are expressed as the difference in apoptosis relative to control and are expressed as a percentage.

synaptic NMDA receptors = assay: mEPSC recording, NMDA receptor-mediated component; assay type: cell-based, rat
cortical neurons [3] = assay: Apoptosis by NMDA after blockade of synaptic NMDA receptors (extrasynaptic receptors); assay type: cell-based, rat; conditions: synaptic receptors blocked with MK-801 plus bicuculline; NMDA 50 μM plus 10 μM glycine 20 min; assayed 20 h after
Method: In accordance with various aspect of the invention, we have illustrated the role of extrasynaptic NR2A- and NR2B-containing receptors in mediating NMDA-induced cell survival and death. After a specific blockade of synaptic NMDA receptors and wash-out of bicuculline and MK-801, the neurons were treated with NMDA (50 μM plus 10 μM glycine) for 20 min in the absence or presence of NVP-AAM077 (0.4 μM) or Ro 25-6981 (0.5 μM). […] Thus, as with synaptic NMDA receptors, activation of extrasynaptic NR2A-containing receptors has a role in promoting cell survival, counteracting NR2B-containing receptor-mediated neuronal apoptosis. […]
To visualize injured neurons, Hoechst-33342 (10 μg/ml) was added to the culture medium 20 h after treatments and incubated for 45 min at 37 °C. Images were taken with a Leica DMIRE2 fluorescence microscope. Quantitative assessment of neuronal apoptosis was performed 20 h following treatments using a Cell Death Detection ELISAPLUS Kit (Roche Applied Science). Absorbance readings were determined using a spectrophotometric microplate reader. […] Data are expressed as the difference in apoptosis relative to control and are expressed as a percentage.

[4] = tested on: middle cerebral artery occlusion (MCAo); assay: MCAo focal ischemic stroke model, post-ischemic treatment; assay type: in vivo, rat; conditions: for effect of co-administration on the glycine effect (infarct volume reduction): co-administered with glycine 800 mg/kg 4.5 h after stroke onset
From the text: In some clinical settings, it is desirable to implement therapy after the onset of neuronal injury, such as stroke or other ischemic events.
Transient cerebral focal ischemia was produced by middle cerebral artery occlusion (MCAo) as described (Aarts et al., 2002; Bederson et al., 1986; Longa et al., 1989). Briefly, male Sprague-Dawley rats (Charles River Laboratories) weighing ˜300 g were anesthetized and MCAo was achieved by introducing a 3-0 monofilament suture into the MCA via the internal carotid artery. Body temperature was maintained at 37.0±0.5° C., and blood pressure and blood gases were monitored during the experiments. Animals were sacrificed 24 h following MCAo onset. Cerebral infarction was analyzed using brain sections stained with hematoxylin and eosin (H & E) or 2,3,5-triphenyltetrazolium chloride (TTC). 10 min before the animals were sacrificed, two tests, the postural reflex test to examine upper body posture (Bederson et al., 1986) and the forelimb placing test to examine sensorimotor integration in forelimb placing responses to visual, tactile, and proprioceptive stimuli (De Ryck et al., 1989), were performed to grade neurological function on a scale of 0 to 12 (0=normal, 12=worst). In the pretreatment study, a single bolus of drugs (NR2A-specific antagonist NVP-AAM077 (2.4 mg/kg) or NR2B specific antagonist Ro 25-6981 (6 mg/kg) or vehicle (saline)) was infused intravenously 30 min before a 1-h MCAo. For post-treatment experiments, animals were subjected to a 1.5-h MCAo and drug treatments (glycine, 800 mg/kg; NVP-AAM077 and Ro 25-6981 at the same doses as in the pretreatment study) were then given via intraperitoneal injection (i.p.) 3 h after reperfusion (4.5 h after the onset of MCAo).
The activating effect on NR2A-containing receptors was mimicked with the application of the NMDA receptor co-agonist glycine in the presence of an […] NR2B antagonist. Glycine by itself potentiates the function of NMDA receptors that are activated by endogenously released glutamate from presynaptic terminals both in vitro and in vivo (Johnson et al., 1987; Lu et al., 2001; De et al., 2000).

Row | SMILES | percentage blockade of NMDA-induced currents, applied alone [1] | reduction in the percentage of NMDA current inhibition by Ro25-6981 following NVP-AAM077 blockade ([1]; alone vs after NVP-AAM077 0.4 μM) | percentage blockade of NMDA-induced currents, applied after blockade by the other antagonist [1] | effect on NMDA-induced neuronal apoptosis/damage (cortical neurons [2]) | effect on slow NMDA receptor-mediated component of mEPSCs (synaptic NMDA receptors; -60 mV, zero added Mg2+, APV 50 μM, Ro 25-6981 0.5 μM) | NR2B-containing receptor-mediated (Ro 25-6981-sensitive) component of synaptic NMDA currents (synaptic NMDA receptors; Ro 25-6981 0.5 μM, n=5) | effect on apoptosis elicited by NMDA via extrasynaptic NMDA receptors (cortical neurons [3]) | effect of co-administration on the glycine effect (infarct volume reduction) [4] | neuroprotection / total infarct volume compared with MCAo alone ([4]; given 3 h after 1.5-h MCAo (4.5 h after stroke onset), MK801 1 mg/Kg, glycine 800 mg/Kg, Ro 25-6981 6 mg/Kg) | effect on the remainder (non-NR2B) of the synaptic NMDA currents (synaptic NMDA receptors; NVP-AAM077 0.4 μM, n=5) | effect of co-administration on the glycine effect (infarct volume reduction) ([4]; listed as NVP-AAM066)
1 | C[C@@H](CN1CCC(Cc2ccccc2)CC1)[C@@H](O)c1ccc(O)cc1 (relative stereo) [Ro 25-6981, [R-(R*,S*)]-α-(4-Hydroxyphenyl)-β-methyl-4-(phenylmethyl)-1-piperidinepropanol] | 34.6%±1.8% | 5.6% | 29.0%±3.3% | prevented NMDA-induced neuronal apoptosis | significantly reduced | 32.4±3.6% | prevented | resistant | did not provide any noticeable neuroprotection; also recorded: ineffectiveness |  | 
2 | C[C@H](NC(c1cccc2[nH]c(=O)c(=O)[nH]c12)P(=O)(O)O)c1ccc(Br)cc1 (stereo partly shown) [NVP-AAM077] | 42.9%±5.9% |  | 43.4%±12.4% | significantly enhanced |  |  | potentiated NMDA-mediated apoptosis | abolished; also recorded: prevented |  | largely eliminated | abolished the neuroprotection offered by glycine
